Reference: PMC7221699, “Synthesis and Cytotoxic Analysis of Novel Myrtenyl Grafted Pseudo-Peptides Revealed Potential Candidates for Anticancer Therapy” (Molecules, 2020)

Legend:
[1] = system: human gastric adenocarcinoma (AGS) cells; test: Sulforhodamine B (SRB) cell cytotoxicity assay, AGS cells; format: cell-based; conditions: for viability at 0.24 µg/mL / EC50: Homo sapiens; for viability at 0.24 µg/mL: AGS, 240 ng/mL, Figure 2, read-out: viability (%) in the AGS screen; for viability at 0.24 µg/mL / cytotoxicity against AGS cells at the lowest concentration: 24 h; for cytotoxicity to AGS cells (preliminary screen): 60, 120 and 240 ng/mL, 24 h of incubation; for cytotoxicity against AGS cells at the lowest concentration: 60 ng/mL; for Emax / EC50: AGS cells; for Emax: maximal drug effect on viability rate, 1 = no effect, 0 = fully cytotoxic; for EC50: 24 h of drug treatment, SRB assay
Method: (§1) […] The cell lines were expanded, cultured, and maintained at 37 °C in a humid atmosphere with 5% CO2 in modified Dulbecco’s medium (Thermo Fisher Scientific, Waltham, MA, USA), with 10% FBS (Thermo Fisher Scientific, Waltham, MA, USA) and 100 U/mL of the antibiotic mixture penicillin/streptomycin (Thermo Fisher Scientific, Waltham, MA, USA).
(§2) We evaluated the cytotoxicity effects of novel Myrtenal hybrids against on cells by the sulforhodamine B (SRB) assay. Initially, the cells were seeded in 96-well microplates at a density of 2 × 10^4 cells/well. All compounds were initially dissolved in 100% of methanol and prediluted to reduce methanol concentration to 1% or lower in culture medium and added to the cells at different concentrations for 24 h. Then, cells were fixed by adding 10% (w/v) trichloroacetic acid (TCA) (Winkler) in each well and were stained with 0.057% (w/v) Sulforhodamine B (SRB) (Sigma-Aldrich) in 1% (v/v) acetic acid (Winkler). The bound dye was dissolved in 10 mM Tris base (Sigma-Aldrich), and the absorbance was determined at 510 nm using a multiplate reader (Synergy 2, Biotek Instruments). Percentage cell viability was determined using the formula: […]. The absorbance from the wells of the negative control (1% methanol in culture medium) was considered as the 100% viability. EC50 values were determined by regression analysis (R^2 > 0.95) of the corresponding dose response curves of percentage of cell viability and concentration of the compounds. Emax, the maximum effect of the drug at the highest tested concentration were determined using an online calculator (http://www.grcalculator.org/). Emax lies between 1 and 0; a value of 0 corresponds to a fully cytotoxic response.

[2] = system: human colon adenocarcinoma (HT-29) cells; test: Sulforhodamine B (SRB) cell cytotoxicity assay, HT-29 cells; format: cell-based; conditions: HT29 cells; for Emax: maximal drug effect on viability rate, 1 = no effect, 0 = fully cytotoxic; for EC50: Homo sapiens, HT-29, 24 h of drug treatment, SRB assay
Method: as §1, §2

primary CD4+ T cells = test: Viability and cell count of activated CD4+ T lymphocytes per proliferation cycle (flow cytometry); format: cell-based, human; conditions: compounds added at EC25 48 h after activation, incubated four days; for viability of non-proliferating CD4+ T cells: cycle 0 and 1; for viability / number of proliferating CD4+ T cells: cycle 2, 3 and 4
Method: CD4+ T cells were first stained with a cell tracer dye, a fluorescent reagent that diffuses into cells and binds covalently to intracellular amines, and then with a Live/Dead dye that permeates into cells with damaged membranes, while live cells remain unstained. In addition, counting beads were added into each sample to calculate the exact number of cells per cell cycle (Figure 4A). Then, in order to induce proliferation, fluorescent-labelled CD4+ T cells were activated with anti-CD3/CD28 beads, which mimic physiological T cell receptor triggering and co-stimulation in T lymphocytes. After activation, a proportion of cells proliferated, while some stayed in a non-proliferative state. […] Myrtenyl derivatives were added after the second day of culture to evaluate their effect on non-proliferating CD4+ T cells at cycle 0 and 1 and in proliferating cells in cycle 2, 3, and 4. Live CD4+ T cells activated in the presence of five Myrtenyl derivatives were counted and results were normalized with the control sample per cell cycle.
CD4+ T cells were obtained from peripheral blood from healthy volunteers. Blood samples were diluted 1:2 with PBS before adding 50 μL/mL of RosettSep Human CD4+ T cell enrichment cocktail (STEM CELL) for 20 min at room temperature. After incubation, samples were diluted again 1:4 with PBS and CD4+ T cells were obtained directly from the mononuclear fraction obtained after Ficoll–Hypaque density gradient centrifugation. CD4+ T cells were washed twice, counted, and resuspended in PBS. CD4+ T cells were then stained with 1 μM Cell Trace Violet Cell Proliferation Kit (Invitrogen, Thermo Fisher Scientific, Waltham, MA, USA) for 20 min at 37 °C, protected from light. Unbound dye was quenched by adding cold FCS for 5 min at 4 °C. CD4+ T cells were washed two times and resuspended in X–VIVO (Gibco) with IL–2 (50 U/mL, ProLeukin). Cells (2 × 10^5) were activated for 48 h with CD3/CD28 Dynabeads (Invitrogen) prior to adding the compounds. After 48 h, compounds were added (EC25) and incubated for four days. To analyze proliferation and viability, cells were stained with Live/Dead fixable far red dead cell staining kit (Invitrogen) for 30 min at 4 °C and counting beads were added before acquisition. Cells were acquired on an LSRFortessa X20 (BD) within 24 h. Data were analyzed using FlowJo (Tree Star, Inc., Ashland, OR, USA).

[3] = system: human breast adenocarcinoma (MCF-7) cells; test: Sulforhodamine B (SRB) cell cytotoxicity assay, MCF-7 cells; format: cell-based; conditions: for EC50: Homo sapiens, MCF7, 24 h of drug treatment, SRB assay; for Emax: maximal drug effect on viability rate, 1 = no effect, 0 = fully cytotoxic
Method: as §1, §2

[4] = system: human dermal fibroblast (HDF) cells; test: Sulforhodamine B (SRB) cell cytotoxicity assay, HDF non-cancer cells; format: cell-based; conditions: 60, 120 and 240 ng/mL, 24 h
Method: as §1, §2

[5] = system: AGS, MCF-7 and HT-29 cells; test: SRB cytotoxicity assay, summary over the three cancer cell lines; format: cell-based; conditions: Homo sapiens, MCF-7 and HT-29, 24 h, read-out: EC50 range over the cancer cell lines
Method: as §1
as §2, with “All compounds were initially dissolved in 100% of methanol and prediluted to reduce methanol concentration to 1% or lower in culture medium and added to the cells at different concentrations for 24 h. Then, cells were fixed by adding 10% (w/v) trichloroacetic acid (TCA) (Winkler) in each well and were stained with 0.057% (w/v) Sulforhodamine B (SRB) (Sigma-Aldrich) in 1% (v/v) acetic acid (Winkler).” left out, “Emax lies between 1 and 0; a value of 0 corresponds to a fully cytotoxic response.” left out

C#CCN(C(C)=O)C(C(=O)NC1CCCCC1)C1=CC[C@H]2C[C@@H]1C2(C)C (mixture of isomers) [1c, N-cyclohexyl-2-((1R,5S)-6,6-dimethylbicyclo[3.1.1]hept-2-en-2-yl)-2-(N-(prop-2-yn-1-yl)acetamido) acetamide] showed a viability at 0.24 µg/mL [1] of 40%.
For CC(=O)N(CC#CC#CCN(C(C)=O)C(C(=O)NC1CCCCC1)C1=CC[C@H]2C[C@@H]1C2(C)C)C(C(=O)NC1CCCCC1)C1=CC[C@H]2C[C@@H]1C2(C)C (mixture of isomers) [4b, 2,2′-[hexa-2,4-diyne-1,6-diylbis(acetylazanediyl)]-bis[N-cyclohexyl-2-((1R,5S)-6,6-dimethylbicyclo[3.1.1]hept-2-en-2-yl)acetamide]], the “cytotoxicity to AGS cells (preliminary screen)” value [1] was “not cytotoxic”.
CC(=O)N(Cc1ccccc1)C(C(=O)NC1CCCCC1)C1=CC[C@H]2C[C@@H]1C2(C)C (stereo partly drawn) [1a, 2-(N-benzylacetamido)-N-cyclohexyl-2-((1R,5S)-6,6-dimethylbicyclo[3.1.1]hept-2-en-2-yl)acetamide] was tested, and the Emax [2] was 0.1, the EC50 [2] was 68 nM and the “viability of non-proliferating CD4+ T cells at cycle 0” value (primary CD4+ T cells) was “more cytotoxic than 3c”. The “viability of non-proliferating CD4+ T cells” value (primary CD4+ T cells) was “reduced viability”, the “viability / number of proliferating CD4+ T cells” value (shortened to “viability / number”) (primary CD4+ T cells) was “reduced viability” and the EC50 [3] was 65 nM. For the same molecule, the Emax [3] was 0.1, the “cytotoxicity against AGS cells at the lowest concentration” value (“cytotoxicity against AGS cells” for short) [1] was “high cytotoxicity” and the Emax [1] was 0.1. For the same molecule, the EC50 [1] was 46 nM and the “effect on HDF viability (preliminary screen)” value (“effect on HDF viability” below) [4] was “without affecting HDF viability”.
Molecule C#CCN(CC(=O)NC1CCCCC1)C(=O)C1=CC[C@H]2C[C@@H]1C2(C)C [2c, (1R,5S)-N-[2-(cyclohexylamino)-2-oxoethyl]-6,6-dimethyl-N-(prop-2-yn-1-yl)bicyclo[3.1.1]hept-2-ene-2-carboxamide] has a viability at 0.24 µg/mL [1] of 60%.
In the case of Cc1ccc(-n2cc(CN(CC(=O)NC3CCCCC3)C(=O)C3=CC[C@H]4C[C@@H]3C4(C)C)nn2)cc1 [3a, (1R,5S)-N-[2-(cyclohexylamino)-2-oxoethyl]-6,6-dimethyl-N-{[1-(p-tolyl)-1H-1,2,3-triazol-4-yl]methyl} bicyclo[3.1.1]hept-2-ene-2-carboxamide], the Emax [2] is reported as 0.3, the EC50 [2] is reported as 59 nM and the “viability of non-proliferating CD4+ T cells at cycle 0” value (primary CD4+ T cells) is reported as “more cytotoxic than 3c”. For the same molecule, the “viability of non-proliferating CD4+ T cells” value (primary CD4+ T cells) was “reduced viability”, the “viability / number” value (primary CD4+ T cells) was “reduced viability” and the EC50 [3] was 24 nM. For the same molecule, the Emax [3] was 0.3, the “cytotoxicity against AGS cells” value [1] was “high cytotoxicity” and the Emax [1] was 0.1. The EC50 [1] was 50 nM and the “effect on HDF viability” value [4] was “without affecting HDF viability”.
For CC1(C)[C@H]2CC=C(C(=O)N(CC(=O)NC3CCCCC3)Cc3cn(-c4cccc(Cl)c4)nn3)[C@@H]1C2 [3b, (1R,5S)-N-{[1-(3-chlorophenyl)-1H-1,2,3-triazol-4-yl]methyl}-N-[2-(cyclohexylamino)-2-oxoethyl]-6,6-dimethylbicyclo[3.1.1]hept-2-ene-2-carboxamide], the Emax [2] was 0.4, the EC50 [2] was 21 ± 7 nM and the “viability of non-proliferating CD4+ T cells” value (primary CD4+ T cells) was “did not reduce viability”. For the same molecule, the “viability / number” value (primary CD4+ T cells) was “able to reduce number of proliferating cells”, the EC50 [3] was 24 ± 7 nM and the Emax [3] was 0.5. The “cytotoxicity against AGS cells” value [1] was “high cytotoxicity”, the Emax [1] was 0.2 and the EC50 [1] was 49 ± 8 nM. The “effect on HDF viability” value [4] was “without affecting HDF viability”.
For COc1ccc(-n2cc(CN(CC(=O)NC3CCCCC3)C(=O)C3=CC[C@H]4C[C@@H]3C4(C)C)nn2)cc1 [3c, (1R,5S)-N-[2-(cyclohexylamino)-2-oxoethyl]-N-{[1-(4-methoxyphenyl)-1H-1,2,3-triazol-4-yl]methyl}-6,6-dimethylbicyclo[3.1.1]hept-2-ene-2-carboxamide], the Emax [2] was 0.4, the EC50 [2] was 38 nM and the “viability of non-proliferating CD4+ T cells” value (primary CD4+ T cells) was “reduced viability”. For the same molecule, the “viability / number” value (primary CD4+ T cells) was “reduced viability”, the EC50 [3] was 38 nM and the Emax [3] was 0.4. The “cytotoxicity against AGS cells” value [1] was “high cytotoxicity”, the Emax [1] was 0.1 and the EC50 [1] was 75 nM. For the same molecule, the “effect on HDF viability” value [4] was “without affecting HDF viability”.
For CC1(C)[C@H]2CC=C(Cn3cc(CN(CC(=O)NC4CCCCC4)C(=O)C4=CC[C@H]5C[C@@H]4C5(C)C)nn3)[C@@H]1C2 [3d, (1R,5S)-N-[2-(cyclohexylamino)-2-oxoethyl]-N-({1-[((1R,5S)-6,6-dimethylbicyclo[3.1.1]hept-2-en-2-yl)methyl]-1H-1,2,3-triazol-4-yl}methyl)-6,6-dimethylbicyclo[3.1.1]hept-2-ene-2-carboxamide], the Emax [2] was 0.1, the EC50 [2] was 33 nM and the “viability of non-proliferating CD4+ T cells at cycle 0” value (primary CD4+ T cells) was “did not reduced viability”. For the same molecule, the “viability of proliferating CD4+ T cells at cycle 4” value (primary CD4+ T cells; cycle 4) was “lowest capacity to reduce viability”, the EC50 [3] was 22 nM and the Emax [3] was 0.1. For the same molecule, the “cytotoxicity against AGS cells” value [1] was “high cytotoxicity”, the Emax [1] was 0.1 and the EC50 [1] was 33 nM. The “effect on HDF viability” value [4] was “without affecting HDF viability” and the EC50 [5] was 22 to 33 nM.
With CC(=O)OC[C@@H]1O[C@H](n2cc(CN(CC(=O)NC3CCCCC3)C(=O)C3=CC[C@H]4C[C@@H]3C4(C)C)nn2)[C@@H](OC(C)=O)[C@H](OC(C)=O)[C@H]1OC(C)=O [3e, (2S,3S,4R,5S,6S)-2-(acetoxymethyl)-6-[4-({(1R,5S)-N-[2-(cyclohexylamino)-2-oxoethyl]-6,6-dimethylbicyclo [3.1.1]hept-2-ene-2-carboxamido}methyl)-1H-1,2,3-triazol-1-yl]tetrahydro-2H-pyran-3,4,5-triyl triacetate] the “cytotoxicity against AGS cells” value [1] was “low activity”.
With CC1(C)[C@H]2CC=C(C(=O)N(CC#CC#CCN(CC(=O)NC3CCCCC3)C(=O)C3=CC[C@H]4C[C@@H]3C4(C)C)CC(=O)NC3CCCCC3)[C@@H]1C2 [4a, (1R,1′R,5S,5′S)-N,N′-(hexa-2,4-diyne-1,6-diyl)-bis{N-[2-(cyclohexylamino)-2-oxoethyl]-6,6-dimethylbicyclo [3.1.1]hept-2-ene-2-carboxamide}] the “cytotoxicity to AGS cells (preliminary screen)” value [1] was “not cytotoxic”.
